# Patent US12697325B2 (TENNOR THERAPEUTICS (SUZHOU) LIMITED, priority 2021, dated 2026)
# Tests used:
# [1] = system: Acinetobacter baumannii strains; assay: Minimum inhibitory concentration (CLSI M07), Example 2, 20 strains; format: cell-based
# Protocol: The minimum inhibitory concentration (MIC) was determined in accordance with the requirements of the Clinical and Laboratory Standards Institute (CLSI) M07 (for aerobic bacteria).
# 3.1 The compounds were diluted with DMSO up to 100 times of the highest concentration tested.
# The steps of manual dilution are as follows (example): firstly, the compound or antibiotic was diluted to 100 times of the maximum final concentration tested, then 60 μL of compound mother liquor was added to the first column of the 96-well plate, and 30 μL of DMSO was added to each well in the second to the 12th column; 30 μL of the liquid was transferred from the first column to the second column. After being pipetted up and down to even, 30 μL was transferred to the third column, and was diluted in sequence at a 2-fold gradient for a total of 10 times; then 30 μL was removed from each well in the 11th column, then a compound solution diluted at 2-fold gradient was obtained and 1 μL was transferred to a 96-well test plate.
# Aerobic bacteria: the strains were inoculated on MHA one day in advance and incubated overnight at 37° C. On the day of the assay, 5-6 single colonies were picked and suspended evenly in saline, and the bacterial concentration was adjusted to the turbidity of 0.5 McFarland standard (concentration is about 1×10^8 CFU/mL). The bacterial suspension was diluted at 200-fold with the corresponding liquid culture medium (Table 1), i.e., the bacterial concentration was ~5×10^5 CFU/ml, and then 100 μL of the liquid was transferred to a 96-well round bottom plate (the 96-well plate with compound prepared in 4.2, Echo method) to obtain the test plate. If the compound was manually diluted, then 99 μL of the solution was transferred into a 96-well round bottom plate. The 96-well round bottom plate obtained above was placed into an incubator at 37° C. and 85% humidity to incubate for 20 h.
# [2] = cited from earlier work
# [3] = 2 g, q8 h via infusion for 3 h; cited from earlier work
smiles,measurement,setting,value
"CC1(C)[C@H](C(=O)O)N2C(=O)C[C@H]2S1(=O)=O [Sulbactam, (2S, 5R)-3,3-dimethyl-7-oxo-4-thia-1-azabicyclo [3.2.0] heptane-2-carboxylic acid 4,4-dioxide]",MIC of the strain BAA-1795 (component in the combination),"[1]; strain BAA-1795, sulbactam/avibactam 4:1, concentration of the named component",8 µg/mL
same,MIC90 of the single component in the combination,"[1]; sulbactam sodium:avibactam sodium = 4:1, concentration of the named component",16 µg/mL
same,MIC50 of the single component in the combination,"[1]; sulbactam sodium:avibactam sodium = 4:1, concentration of the named component, Examples 1 and 2",8 µg/mL
same,Protein binding,[2],approximately 5.2%
same,Part of the dosing interval with plasma concentration above 2 μg/mL,[3],44%
same,Part of the dosing interval with plasma concentration above 4 μg/mL,[3],19%
